Source: patent US12351561B2, “Crystalline (2S,4R)-5-(5'-chloro-2'-fluoro-[1,1'-biphenyl]-4-yl)-2-(ethoxymethyl)-4-(3-hydroxyisoxazole-5-carboxamido)-2-methylpentanoic acid and uses thereof” (THERAVANCE BIOPHARMA R&D IP, LLC, priority 2016, dated 2025)

Legend:
[1] = molecular target: T1, NEP (Homo sapiens, UniProt P08473); assay: Assay 3.1: NEP activity in human (cGMP), single-ascending dose study; type: in vivo
T1 construct: from tissue; host or cells: healthy human volunteers (in vivo)
Method: (§1) A Phase 1 single-ascending dose (SAD) clinical trial of Compound I′ (Form I), which converts to or dissolves to provide its soluble form Compound I in the body, was conducted in order to assess neprilysin inhibition for the treatment of a range of cardiovascular and renal diseases, including, e.g., chronic kidney disease, diabetic nephropathy, acute and chronic heart failure, heart failure with reduced ejection fraction, heart failure with preserved ejection fraction, post-myocardial infarction asymptomatic left ventricular dysfunction (post-MI asymptomatic LVD), subacute heart failure and resistant and isolated systolic hypertension. Safety and tolerability, pharmacokinetic (support for QD/BID dosing and non-renal excretion), pharmacodynamic (test for target engagement biomarkers cGMP and ANP), food effect, and absolute oral bioavailability and renal elimination using a ^14C intravenous microtracer, inter alia, were tested.
(§2) The Phase 1 study was a double-blind, randomized placebo-controlled single ascending dose study in healthy male and female volunteers randomized in a 4:1 ratio. The study enrolled 56 healthy volunteers over multiple weeks for the ascending-dose portion, which included cohorts (n=10/cohort of 8 active and 2 placebo) administered single ascending doses of 50 mg, 100 mg, 200 mg, 400 mg and 600 mg. A sixth cohort (n=6) was administered i.v. microtracer and oral doses of 10 μg and 100 mg, respectively.
One goal of this study was to determine the mechanism/duration of action of Compound I after dosing in humans.

[2] = Assay 1: IV/PO pharmacokinetic study in dogs; type: in vivo, male beagle dogs; conditions: dog; for bioavailability / AUC(0-t): plasma; for bioavailability: po; for AUC(0-t): read-out: AUClast Mean
Method: (§3) Each rat, dog or monkey PK study began with formulation of the test compound. Appropriate masses of each test compound were added into a volume of vehicle (e.g. 5% sodium bicarbonate, 5% dextrose in H2O) such that the final concentration of each compound was appropriate to be dosed. Although a homogenous suspension were acceptable for oral dosing, intravenous dosing solutions were sterile-filtered (0.2 μm) prior to dosing to ensure no particulates were administered.
In the dog study, male non-naïve beagle dogs (3 per route) housed at Agilux Laboratories (Worcester, MA) and weighing between 9-14 kg received either an oral or intravenous dose. Oral doses were delivered into the stomach using a syringe and gavage tube followed by a water flush of approximately 10 mL. Oral doses were administered at a volume of 2 mL/kg. Intravenous doses were administered via a percutaneous catheter placed in sphenous vein followed by a saline flush of approximately 3 mL. Intravenous doses were administered at a volume of 0.5 mL/kg. […] Serial blood samples were harvested via direct venipuncture at 3 min, 15 min, 30 min, 1 h, 2 h, 4 h, 6 h, 8 h, 12 h, and 24 h post-dose. All samples were collected manually into microtainer tubes containing EDTA as the anticoagulant and were processed to plasma by refrigerated centrifugation.
(§4) Plasma concentrations of Compound I were determined by LC/MS/MS. Plasma study samples were vortexed and placed in a 96-well plate. The samples were extracted with 200 μL of acetonitrile with an internal standard. The extract was centrifuged for 10 minutes at 2809 RPM and 50 μL supernatant was mixed with 200 μL 0.2% formic acid in water. Samples (10-15 μL) were injected on a ThermoFisher HyPURITY™ (C18 50×2.1 mm) column with a flow rate of 0.35 mL/min. Mobile phase A consisted of water: acetonitrile: formic acid (95:5:0.1, v:v:v) and Mobile phase B consisted of methanol: acetonitrile: formic acid (50:50:0.1, v:v:v) (dog). Mobile phase A consisted of 0.2% formic acid in water and mobile phase B consisted of 0.2% formic acid in acetonitrile (rat and monkey). Pharmacokinetic parameters of Compound I were determined by non-compartmental analysis (Model 201 and Model 200 for IV and PO administration, respectively) using Phoenix WinNonlin Version 6.3 (Certara, Sunnyvale, CA) and using individual plasma concentration time profiles from 3 animals per treatment group.
(§5) Plasma clearance was determined from the intravenous arm of the study, and represents the rate at which plasma is cleared of drug. It is equal to the dose divided by the area under the plasma concentration-time curve. In addition to plasma clearance, it is also essential for an orally administered drug to reach efficacious systemic levels following oral delivery. Oral bioavailability is a measurement of plasma exposures following oral administration relative to exposures following intravenous administration.

[3] = Assay 3.2: PK profile, oral bioavailability and renal excretion in human (SAD, 14C i.v. microtracer); type: in vivo
Method: as §1, §2

[4] = Assay 1: IV/PO pharmacokinetic study in rats; type: in vivo, male Sprague-Dawley rats; conditions: rat; for AUC(0-t) / bioavailability: plasma; for AUC(0-t): read-out: AUClast Mean; for bioavailability: po
Method: as §3
In the rat study, pre-cannulated male Sprague-Dawley rats (3 per route) were obtained from Harlan Laboratories or Charles Rivers Laboratories. Rats received either a oral dose delivered into the stomach using a syringe and gavage tube or a intravenous (via lateral tail vein) dose of the dosing solution. The final dose was 0.5 mg/kg. Serial blood samples were harvested via the cannula implanted in the jugular vein at 3 min, 15 min, 30 min, 1 h, 2 h, 4 h, 6 h, and 24 h post-dose. Sampling was performed either manually or using automated blood samplers. Samples were collected into microtainer tubes containing EDTA as the anticoagulant and were processed to plasma by refrigerated centrifugation.
as §4, §5

T1 sequence (P08473 whole entry): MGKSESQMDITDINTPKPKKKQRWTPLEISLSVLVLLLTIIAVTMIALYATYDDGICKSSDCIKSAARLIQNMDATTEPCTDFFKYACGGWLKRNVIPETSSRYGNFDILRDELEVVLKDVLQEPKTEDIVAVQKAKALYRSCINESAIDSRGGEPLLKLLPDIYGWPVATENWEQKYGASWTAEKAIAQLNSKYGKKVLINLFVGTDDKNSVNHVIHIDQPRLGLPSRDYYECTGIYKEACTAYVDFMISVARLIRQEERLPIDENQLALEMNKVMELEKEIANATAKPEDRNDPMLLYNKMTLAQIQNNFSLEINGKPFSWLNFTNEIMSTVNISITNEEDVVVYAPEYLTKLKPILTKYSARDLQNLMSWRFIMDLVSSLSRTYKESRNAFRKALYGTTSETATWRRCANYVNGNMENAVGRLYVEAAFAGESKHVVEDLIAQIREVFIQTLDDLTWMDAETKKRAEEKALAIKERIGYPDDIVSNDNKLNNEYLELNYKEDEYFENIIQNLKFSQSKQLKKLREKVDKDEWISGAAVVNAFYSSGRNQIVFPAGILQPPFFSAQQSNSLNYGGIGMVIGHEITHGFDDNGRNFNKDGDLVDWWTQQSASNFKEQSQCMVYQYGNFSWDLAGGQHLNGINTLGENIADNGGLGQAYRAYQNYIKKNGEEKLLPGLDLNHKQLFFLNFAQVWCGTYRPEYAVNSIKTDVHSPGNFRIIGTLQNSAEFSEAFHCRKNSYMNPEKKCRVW

- time window of the highest cGMP levels ([1]; healthy subjects, after a single dose): 8 to 12 h
- dose levels at which plasma cGMP dose response shows near maximal effect ([1]; healthy subjects, single dose): ≥ 100 mg
- CLlast Mean ([2]; PO, 0.1 mg/kg): 47.2 mL/min/kg
- bioavailability ([2]; higher doses (100-300 mg/kg), data not shown, read-out: mean bioavailability): 7 to 13%
- bioavailability ([2]; male, beagle, 0.1 mg/kg, read-out: Oral Bioavailability Mean): ~17%
- AUC(0-t) ([2]; male, beagle, IV, 0.1 mg/kg): 210 ng·h/mL
- AUC(0-t) ([2]; male, beagle, PO, 0.1 mg/kg): 34.9 ng·h/mL
- bioavailability ([3]; both sexes, in vivo, po, 100 mg, human, SAD clinical trial): ~80%
- pharmacokinetic profile ([3]; healthy subjects, single doses 50-600 mg): dose-proportional
- renal elimination (of total administered dose) ([3]; human, SAD clinical trial, confirmed by intravenous microtracer): < 1%
- AUC(0-t) ([4]; male, Sprague-Dawley, IV, 0.5 mg/kg): 390 ng·h/mL
- AUC(0-t) ([4]; male, Sprague-Dawley, PO, 0.5 mg/kg): 130 ng·h/mL
- bioavailability ([4]; male, Sprague-Dawley, 0.5 mg/kg, read-out: Oral Bioavailability Mean): ~33%
- CLlast Mean ([4]; IV, 0.5 mg/kg): 20.3 mL/min/kg
- CLlast Mean ([4]; PO, 0.5 mg/kg): 50.2 mL/min/kg
- bioavailability ([4]; higher doses (30-1000 mg/kg), data not shown, read-out: mean bioavailability): 49 to 79%
Structure (SMILES): CCOC[C@](C)(C[C@@H](Cc1ccc(-c2cc(Cl)ccc2F)cc1)NC(=O)c1cc(O)no1)C(=O)O [Compound I, (2S,4R)-5-(5′-Chloro-2′-fluoro-[1,1′-biphenyl]-4-yl)-2-(ethoxymethyl)-4-(3-hydroxyisoxazole-5-carboxamido)-2-methylpentanoic Acid]
- change in mean plasma cGMP from baseline ([1]; healthy subjects, single dose 50-600 mg, over 24 hours): sustained increase in mean plasma cGMP over 24-hours
- cGMP in plasma and urine ([1]; human, SAD clinical trial, over 24h): sustained elevations of cGMP over 24h in both plasma and urine
